# In ChEMBL document CHEMBL1201862, “PubChem BioAssay data set” (2004):
#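 Method: 48-hour compound exposure of cells in 96-well plates, five concentrations, linear interpolation of endpoints. Here, GI50 denotes the concentration required for 50% inhibition of growth.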 Activity calls are given as the source filed them. Cut-off read from the data, not from the text of the source: active = GI50 up to about 1.1 µM and inactive = higher. Where a SMILES comes first, the peptide text is derived from it. The star is where a group is joined. Fmoc = O=C(OCC1c2ccccc2-c2ccccc21)*; Boc = CC(C)(C)OC(=O)*
# What was measured:
# Assay in all cases: inhibition of tumour cell growth, NCI panel, 48 h
# K562 = test system: K562
# KM12 = test system: KM12
# COLO 205 = test system: COLO 205
# UACC-62 = test system: UACC-62
# IGROV-1 = test system: IGROV-1
# M14 = test system: M14
# SF-539 = test system: SF-539
# SK-MEL-5 = test system: SK-MEL-5
# CAKI-1 = test system: CAKI-1
# SNB-19 = test system: SNB-19
# Hs-578T = test system: Hs-578T
# SW-620 = test system: SW-620
# U-251 = test system: U-251
# LOX IMVI = test system: LOX IMVI
# TK-10 = test system: TK-10
# CCRF-CEM = test system: CCRF-CEM
# SK-MEL-2 = test system: SK-MEL-2
# NCI-H460 = test system: NCI-H460
# OVCAR-4 = test system: OVCAR-4
# DMS-114 = test system: DMS-114
SMILES,GI50 (K562),GI50 (KM12),GI50 (COLO 205),GI50 (UACC-62),GI50 (IGROV-1),GI50 (M14),GI50 (SF-539),GI50 (SK-MEL-5),GI50 (CAKI-1),GI50 (SNB-19),GI50 (Hs-578T),GI50 (SW-620),GI50 (U-251),GI50 (LOX IMVI),GI50 (TK-10),GI50 (CCRF-CEM),GI50 (SK-MEL-2),GI50 (NCI-H460),GI50 (OVCAR-4),GI50 (DMS-114)
O=[N+]([O-])c1cc(Cl)cc2c1nc(NCCO)c1ccccc12,4.39 µM (inactive),9.53 µM (inactive),0.0435 µM (active),10.3 µM (inactive),15.2 µM (inactive),8.45 µM (inactive),20.9 µM (inactive),1.35 µM (inactive),16.5 µM (inactive),16.1 µM (inactive),28.9 µM (inactive),4.5 µM (inactive),6.64 µM (inactive),17.2 µM (inactive),10.8 µM (inactive),16.7 µM (inactive),10.5 µM (inactive),2.58 µM (inactive),13.5 µM (inactive),–
Oc1ccc2occ3c2c1CCC3,65.8 µM (inactive),–,> 100 µM (inactive),95.9 µM (inactive),> 100 µM (inactive),> 100 µM (inactive),> 100 µM (inactive),> 100 µM (inactive),> 100 µM (inactive),> 100 µM (inactive),–,> 100 µM (inactive),> 100 µM (inactive),> 100 µM (inactive),> 100 µM (inactive),> 100 µM (inactive),–,> 100 µM (inactive),> 100 µM (inactive),81.8 µM (inactive)
NC(=O)c1c([N+](=O)[O-])cc(C(F)(F)F)cc1[N+](=O)[O-],86.1 µM (inactive),44 µM (inactive),26.1 µM (inactive),35.1 µM (inactive),> 100 µM (inactive),76.6 µM (inactive),45.7 µM (inactive),50 µM (inactive),> 100 µM (inactive),> 100 µM (inactive),–,44.5 µM (inactive),> 100 µM (inactive),51.2 µM (inactive),> 100 µM (inactive),–,–,47.4 µM (inactive),68.2 µM (inactive),26.9 µM (inactive)
CCOC(=O)CCC(NC(=O)c1ccc(OCc2ccc3nc(-c4ccccc4)c(Cl)nc3c2)cc1)C(=O)OCC (centres undefined),3.88 µM (inactive),> 31.6 µM (inactive),> 100 µM (inactive),> 31.6 µM (inactive),22.1 µM (inactive),> 31.6 µM (inactive),15.8 µM (inactive),> 31.6 µM (inactive),> 69 µM (inactive),17.3 µM (inactive),14.9 µM (inactive),> 31.6 µM (inactive),18.4 µM (inactive),> 100 µM (inactive),16.4 µM (inactive),> 31.6 µM (inactive),12.4 µM (inactive),> 31.6 µM (inactive),16.4 µM (inactive),–
Oc1c(-c2ccccc2)sc2ccccc12,13.7 µM (inactive),25.8 µM (inactive),13 µM (inactive),49.3 µM (inactive),27.5 µM (inactive),20.2 µM (inactive),44.5 µM (inactive),16.7 µM (inactive),0.836 µM (active),34.3 µM (inactive),43.9 µM (inactive),48.3 µM (inactive),29.4 µM (inactive),15.5 µM (inactive),72.6 µM (inactive),29.8 µM (inactive),10.8 µM (inactive),19.1 µM (inactive),37.9 µM (inactive),–
COC(=O)[C@H](C)N(C)C(=O)[C@H](C)N1[C@@H](c2ccccc2)COC1(C)C,> 100 µM (inactive),> 100 µM (inactive),> 100 µM (inactive),> 100 µM (inactive),> 100 µM (inactive),> 100 µM (inactive),> 100 µM (inactive),> 100 µM (inactive),> 100 µM (inactive),> 100 µM (inactive),> 100 µM (inactive),> 100 µM (inactive),> 100 µM (inactive),> 100 µM (inactive),> 100 µM (inactive),> 100 µM (inactive),> 100 µM (inactive),> 100 µM (inactive),> 100 µM (inactive),–
Oc1nc(-c2ccccc2)cc(-c2ccccc2O)n1,> 100 µM (inactive),> 100 µM (inactive),> 100 µM (inactive),77.3 µM (inactive),> 100 µM (inactive),> 100 µM (inactive),> 100 µM (inactive),–,76.2 µM (inactive),58.2 µM (inactive),–,> 100 µM (inactive),42.2 µM (inactive),51.5 µM (inactive),> 100 µM (inactive),> 100 µM (inactive),–,87.5 µM (inactive),> 100 µM (inactive),58.5 µM (inactive)
O=C1c2cccc3cccc(c23)C(=O)N1CCCNCCCNCCCCNCCCNCCCN1C(=O)c2cccc3cccc(c23)C1=O,3.25 µM (inactive),2.74 µM (inactive),1.14 µM (inactive),2.82 µM (inactive),1.96 µM (inactive),4.06 µM (inactive),3.52 µM (inactive),5.93 µM (inactive),12.9 µM (inactive),2.28 µM (inactive),1.68 µM (inactive),2.03 µM (inactive),1.84 µM (inactive),2.55 µM (inactive),11.6 µM (inactive),0.479 µM (active),4.01 µM (inactive),1.9 µM (inactive),2.83 µM (inactive),–
O=C(/C=C\c1ccc(-c2ccccc2)cc1)c1cccs1,3.7 µM (inactive),4.42 µM (inactive),> 39.2 µM (inactive),16.4 µM (inactive),29.4 µM (inactive),> 100 µM (inactive),7.18 µM (inactive),> 70 µM (inactive),35.7 µM (inactive),> 59.2 µM (inactive),9.59 µM (inactive),5.41 µM (inactive),5.09 µM (inactive),3.88 µM (inactive),46.2 µM (inactive),2.42 µM (inactive),39.4 µM (inactive),56.4 µM (inactive),> 54.2 µM (inactive),–
c1csc(-c2ccc(-c3cccs3)c3nsnc23)c1,9.68 µM (inactive),0.327 µM (active),6.56 µM (inactive),> 100 µM (inactive),0.875 µM (active),37.8 µM (inactive),24.4 µM (inactive),> 33.6 µM (inactive),> 59.8 µM (inactive),> 90.8 µM (inactive),16.5 µM (inactive),17.1 µM (inactive),30.2 µM (inactive),26.3 µM (inactive),7.64 µM (inactive),8.32 µM (inactive),> 48.6 µM (inactive),21.1 µM (inactive),0.608 µM (active),–
COc1ccc(C2c3c(-c4ccccc4)nn(-c4ccccc4)c3Oc3ncn(N)c(=N)c32)cc1OC (centres undefined),3.82 µM (inactive),1.83 µM (inactive),2.23 µM (inactive),1.92 µM (inactive),1.51 µM (inactive),2.04 µM (inactive),1.69 µM (inactive),1.94 µM (inactive),1.86 µM (inactive),2.83 µM (inactive),1.97 µM (inactive),2.9 µM (inactive),4.53 µM (inactive),1.69 µM (inactive),1.95 µM (inactive),2.56 µM (inactive),1.83 µM (inactive),1.71 µM (inactive),2.45 µM (inactive),–
O=c1c(C(c2ccc3c(c2)Cc2ccccc2-3)c2c(O)oc3ccccc3c2=O)c(O)oc2ccccc12,10 µM (inactive),22.3 µM (inactive),20.4 µM (inactive),22.3 µM (inactive),39.3 µM (inactive),20.5 µM (inactive),21.4 µM (inactive),24.5 µM (inactive),20.3 µM (inactive),47.1 µM (inactive),25.6 µM (inactive),29.8 µM (inactive),23.9 µM (inactive),26.3 µM (inactive),56.5 µM (inactive),40.4 µM (inactive),31.9 µM (inactive),25.9 µM (inactive),31.8 µM (inactive),–
CC(C)(C)OC(=O)NCCCCC(NC(=O)OCC1c2ccccc2-c2ccccc21)C(=O)N1CCCC1C(=O)NCC(N)=O (stereo not drawn) (Fmoc-Lys(Boc)-Pro-Gly-NH2; configuration not given here),48.1 µM (inactive),20.7 µM (inactive),28.4 µM (inactive),46 µM (inactive),48.4 µM (inactive),35.1 µM (inactive),88.1 µM (inactive),80.4 µM (inactive),16.4 µM (inactive),> 100 µM (inactive),> 100 µM (inactive),87.9 µM (inactive),18.5 µM (inactive),21.3 µM (inactive),> 100 µM (inactive),76.6 µM (inactive),> 100 µM (inactive),20.3 µM (inactive),23.2 µM (inactive),–
O=C1c2ccccc2-[n+]2ccc3c([nH]c4ccccc43)c21 [FASCAPLYSIN CHLORIDE],0.925 µM (active),0.18 µM (active),0.21 µM (active),0.242 µM (active),0.196 µM (active),0.159 µM (active),0.349 µM (active),0.14 µM (active),0.659 µM (active),0.615 µM (active),1.24 µM (inactive),0.296 µM (active),0.274 µM (active),0.245 µM (active),1.14 µM (inactive),0.337 µM (active),0.226 µM (active),0.263 µM (active),0.628 µM (active),–
CCCOC(=O)c1cc(O)c(O)c(O)c1 [PROPYL GALLATE],> 100 µM (inactive),20.5 µM (inactive),> 100 µM (inactive),24.7 µM (inactive),31.3 µM (inactive),20.8 µM (inactive),10.9 µM (inactive),59.3 µM (inactive),> 100 µM (inactive),57.4 µM (inactive),17.5 µM (inactive),51.3 µM (inactive),56.4 µM (inactive),16.1 µM (inactive),> 100 µM (inactive),> 100 µM (inactive),28.1 µM (inactive),30.1 µM (inactive),> 100 µM (inactive),–
